Results on 34 molecules are retold here after patent publication US20180072997A1, “INHIBITORS OF HUMAN IMMUNODEFICIENCY VIRUS REPLICATION” (ViiV HEATHCARE UK (NO.5) LIMITED, priority 2015, published 2018).

Data set [1] deals with recombinant NL4-3 virus (Renilla luciferase in nef) in MT-2 cells. Briefly: whole plant or invertebrate. The settings on record: Renilla, NL43, MT-2 cells infected for 4-5 days with recombinant NL4-3 Renilla luciferase virus; luciferase activity. In kind it is cell-based, HIV. How it is done: HIV cell culture assay—MT-2 cells, 293T cells and the proviral DNA clone of NL4-3 virus were obtained from the NIH AIDS Research and Reference Reagent Program. MT-2 cells were propagated in RPMI 1640 media supplemented with 10% heat inactivated fetal bovine serum (FBS), 100 μg/ml penicillin G and up to 100 units/mL streptomycin. The 293T cells were propagated in DMEM media supplemented with 10% heat inactivated FBS, 100 μg/mL penicillin G and 100 μg/mL streptomycin. A recombinant NL4-3 proviral clone, in which a section of the nef gene was replaced with the Renilla luciferase gene, was used to make the reference virus used in these studies. The recombinant virus was prepared through transfection of the recombinant NL4-3 proviral clone into 293T cells using Transit-293 Transfection Reagent from Mirus Bio LLC (Madison, Wis.). Supernatent was harvested after 2-3 days and the amount of virus present was titered in MT-2 cells using luciferase enzyme activity as a marker by measuring luciferase enzyme activity. Luciferase was quantitated using the EnduRen Live Cell Substrate from Promega (Madison, Wis.). Antiviral activities of compounds toward the recombinant virus were quantified by measuring luciferase activity in MT-2 cells infected for 4-5 days with the recombinant virus in the presence of serial dilutions of the compound.
(Johnson V A, Byington R T. Infectivity Assay. In Techniques in HIV Research. ed. Aldovini A, Walker BD. 71-76. New York: Stockton Press.1990).

Data set [2] is described as follows: Compound cytotoxicity, XTT-based colorimetric assay. In kind it is cell-based. The settings on record: human, uninfected MT2 cells, day 4, XTT. How it is done: Compound cytotoxicity and the corresponding CC50 values were determined using the same protocol as described in the antiviral assay except that uninfected cells were used. Cytotoxicity was assessed on day 4 in uninfected MT2 cells by using a XTT (2,3-bis[2-Methoxy-4-nitro-5-sulfophenyl]-2H-tetrazolium-5-carboxyanilide inner salt)-based colorimetric assay (Sigma-Aldrich, St Louis, Mo.).

As to `C=CCN(C(=O)[C@H](Cc1cc(F)cc(F)c1)NC(=O)CCC(=O)N[C@@H](Cc1cc(F)cc(F)c1)C(=O)N(CC=C)c1ccc(OC)cc1)c1ccc(OC)cc1` [Example 170], in data set [1], the EC50 was 7.66 µM. Moreover, the cytotoxic concentration (CC50) at 4 days in data set [2] was found to be 28.4 µM.
The like results for `COc1ccc(N(C)C(=O)[C@H](Cc2ccccc2)NC(=O)Cn2c(=O)n(CC(=O)N[C@@H](Cc3ccccc3)C(=O)N(C)c3ccc(OC)cc3)c3cc(Cl)ccc32)cc1` [Example 71] were, in that order, 0.08 µM and 6.5 µM.
Turning to `COc1ccc(N(C)C(=O)[C@H](Cc2ccccc2)NC(=O)Cn2c(=O)n(CC(=O)N[C@@H](Cc3ccccc3)C(=O)N(C)c3ccc(OC)cc3)c3c(Cl)cccc32)cc1` [Example 73], the concentration giving a half-maximal response (EC50) in data set [1] worked out at 0.07 µM. Also, the CC50 at 4 days in data set [2] came to 39.9 µM.
Regarding `C=CCN(C(=O)[C@H](Cc1cc(F)cc(F)c1)NC(=O)NS(=O)(=O)N[C@@H](Cc1cc(F)cc(F)c1)C(=O)N(CC=C)c1ccc2nccnc2c1)c1ccc2nccnc2c1` [Example 213], the EC50 in data set [1] is 8.21 µM. This molecule registered a CC50 at 4 days in data set [2] of at least 100 µM.
Taken in the same sequence, the figures for `COc1ccc(N(C)C(=O)[C@H](Cc2ccccc2)NC(=O)COc2nc3ccccc3n(CC(=O)N[C@@H](Cc3ccccc3)C(=O)N(C)c3ccc(OC)cc3)c2=O)cc1` [Example 95] were 0.21 µM and at least 50 µM.
Taken in the same sequence, the figures for `COc1ccc(N(C)C(=O)[C@H](Cc2cc(F)cc(F)c2)NC(=O)Cn2c(=O)n(CC(=O)N[C@@H](Cc3cc(F)cc(F)c3)C(=O)N(C)c3ccc(OC)cc3)c3cc(OC)ccc32)cc1` [Example 84] were 0.04 µM and 6.9 µM.
For the molecule `COc1ccc(-n2ccnc2[C@H](Cc2ccccc2)NC(=O)c2cccc(C(=O)N[C@@H](Cc3ccccc3)c3nccn3-c3ccc(OC)cc3)c2)cc1` [Example 161], the EC50 in data set [1] worked out at 2.8 µM. This molecule also gave a CC50 at 4 days in data set [2] of 73.9 µM.
As to `COc1ccc(N(C)C(=O)[C@H](Cc2ccccc2)NC(=O)C(C)(C)C(=O)N[C@@H](Cc2ccccc2)C(=O)N(C)c2ccc(OC)cc2)cc1` [Example 4], the EC50 in data set [1] came to 1.87 µM. The molecule also showed a CC50 at 4 days in data set [2] of at least 100 µM.
On to `CN(C(=O)[C@H](Cc1cc(F)cc(F)c1)NC(=O)NS(=O)(=O)N[C@@H](Cc1cc(F)cc(F)c1)C(=O)N(C)c1ccc(OC(F)F)nc1)c1ccc(OC(F)F)nc1` [Example 214], for which the half-maximal effective concentration (EC50) in data set [1] was determined as 0.01 µM. In addition, the CC50 at 4 days in data set [2] came to 43.8 µM.
`COc1ccc(N(C)C(=O)[C@H](Cc2ccccc2)NC(=O)CNC(=O)NCC(=O)N[C@@H](Cc2ccccc2)C(=O)N(C)c2ccc(OC)cc2)cc1` [Example 68]: the EC50 in data set [1] came out at 1.42 µM. Also, it took 69.3 µM to reach half-maximal cytotoxicity in data set [2] (CC50 at 4 days).
The like results for `Cc1cc(C(=O)N[C@@H](Cc2cc(F)cc(F)c2)C(=O)N(C)c2ccc3scnc3c2)cc(C(=O)N[C@@H](Cc2cc(F)cc(F)c2)C(=O)N(C)c2ccc3scnc3c2)c1` [Example 127] were, in that order, 0.01 µM and 3.8 µM.
The like results for `COc1ccc(N(C)C(=O)[C@H](Cc2ccccc2)NC(=O)c2nc[nH]c2C(=O)N[C@@H](Cc2ccccc2)C(=O)N(C)c2ccc(OC)cc2)cc1` [Example 59] were, in that order, 3.34 µM and 11 µM.
Taken in the same sequence, the figures for `COc1ccc(N(C)C(=O)[C@H](Cc2ccccc2)NC(=O)c2ccc(F)c(C(=O)N[C@@H](Cc3ccccc3)C(=O)N(C)c3ccc(OC)cc3)c2)cc1` [Example 106] were 0.05 µM and 6.3 µM.
Consider `CC#CCN(C(=O)[C@H](Cc1cc(F)cc(F)c1)NC(=O)c1cc(F)c(F)cc1C(=O)N[C@@H](Cc1cc(F)cc(F)c1)C(=O)N(CC#CC)c1ccc(OC)cc1)c1ccc(OC)cc1` [Example 234], for which the EC50 in data set [1] is 6.83 µM. Further, the CC50 at 4 days in data set [2] worked out at 95.3 µM.
In the case of `C=CCCN(C(=O)[C@H](Cc1cc(F)cc(F)c1)NC(=O)NS(=O)(=O)N[C@@H](Cc1cc(F)cc(F)c1)C(=O)N(CCC=C)c1ccc(OC)cc1)c1ccc(OC)cc1` [Example 121], the half-maximal effective concentration (EC50) in data set [1] came to 0.73 µM. The same molecule showed a 50% cytotoxic concentration (CC50) at 4 days in data set [2] of 18.8 µM.
As for `COc1ccc(N(C)C(=O)[C@H](Cc2ccccc2)NC(=O)c2cc(C(=O)N[C@@H](Cc3ccccc3)C(=O)N(C)c3ccc(OC)cc3)n(C)n2)cc1` [Example 115], the concentration giving a half-maximal response (EC50) in data set [1] was found to be 2.13 µM. Moreover, the cytotoxic concentration (CC50) at 4 days in data set [2] was at least 100 µM.
Taken in the same sequence, the figures for `COc1ccc(N(C)C(=O)[C@H](Cc2ccccc2)Nc2ncnc(N[C@@H](Cc3ccccc3)C(=O)N(C)c3ccc(OC)cc3)n2)cc1` [Example 109] were 6.87 µM and 65.4 µM.
Take `COc1ccc(N(C)C(=O)[C@H](Cc2ccccc2)NC(=O)[C@@H]2CC[C@H](C(=O)N[C@@H](Cc3ccccc3)C(=O)N(C)c3ccc(OC)cc3)C2)cc1` [Example 52]: in data set [1], the EC50 worked out at 1.14 µM. In data set [2], this molecule had a cytotoxic concentration (CC50) at 4 days of 22.6 µM.
Taken in the same sequence, the figures for `COc1ccc(N(C)C(=O)[C@H](Cc2ccccc2)NC(=O)c2ccccc2-c2ccccc2C(=O)N[C@@H](Cc2ccccc2)C(=O)N(C)c2ccc(OC)cc2)cc1` [Example 79] were 1.4 µM and at least 100 µM.
Taken in the same sequence, the figures for `COc1ccc(N(C)C(=O)[C@H](Cc2cc(F)cc(F)c2)NC(=O)NS(=O)(=O)N[C@@H](Cc2cc(F)cc(F)c2)C(=O)N(C)c2ccc(OC)c(F)c2)cc1F` [Example 233] were 0.03 µM and 35.8 µM.
`CN(C(=O)[C@H](Cc1cc(F)cc(F)c1)NC(=O)c1ccc(F)c(C(=O)N[C@@H](Cc2cc(F)cc(F)c2)C(=O)N(C)c2ccc3scnc3c2)c1)c1ccc2scnc2c1` [Example 126]: the EC50 in data set [1] was determined as 0.01 µM. Also, the CC50 at 4 days in data set [2] is at least 100 µM.
For `COc1ccc(N(C)C(=O)[C@H](Cc2ccccc2)NC(=O)CN2c3ccccc3N(CC(=O)N[C@@H](Cc3ccccc3)C(=O)N(C)c3ccc(OC)cc3)S2(=O)=O)cc1` [Example 27], the concentration giving a half-maximal response (EC50) in data set [1] was 0.04 µM. Moreover, the CC50 at 4 days in data set [2] is at least 100 µM.
Taken in the same sequence, the figures for `C=CCN(C(=O)[C@H](Cc1cc(F)cc(F)c1)NC(=O)NS(=O)(=O)N[C@@H](Cc1cc(F)cc(F)c1)C(=O)N(CC=C)c1ccc(OC)cc1)c1ccc(OC)cc1` [Example 120] were 0.26 µM and 23.3 µM.
In the case of `COc1ccc(N(C)C(=O)[C@H](Cc2ccccc2)NC(=O)c2cccc(C(=O)N[C@@H](Cc3ccccc3)C(=O)N(C)c3ccc(OC)cc3)c2)cc1` [Example 24], the concentration giving a half-maximal response (EC50) in data set [1] was 0.09 µM. It took 4.2 µM to reach half-maximal cytotoxicity in data set [2] (CC50 at 4 days).
Taken in the same sequence, the figures for `COc1ccc(N(C)C(=O)[C@H](Cc2cc(F)cc(F)c2)NC(=O)c2ccc(F)c(C(=O)N[C@@H](Cc3cc(F)cc(F)c3)C(=O)N(C)c3ccc(OC)c(F)c3)c2)cc1F` [Example 232] were 0.18 µM and at least 33.3 µM.
Taken in the same sequence, the figures for `COc1ccc(-n2ccnc2C(Cc2ccccc2)NC(=O)NS(=O)(=O)N[C@@H](Cc2ccccc2)c2nccn2-c2ccc(OC)cc2)cc1` (some centres unmarked) [Example 159] were 3.68 µM and 86.4 µM.
`C=CCN(C(=O)[C@H](Cc1cc(F)cc(F)c1)NC(=O)c1cc(F)c(F)cc1C(=O)N[C@@H](Cc1cc(F)cc(F)c1)C(=O)N(CC=C)c1ccc(OC)cc1)c1ccc(OC)cc1` [Example 192]: in data set [1], the EC50 came out at 7.24 µM. In addition, in data set [2], the 50% cytotoxic concentration (CC50) at 4 days amounted to 58.2 µM.
Taken in the same sequence, the figures for `COc1ccc(N(C)C(=O)[C@H](Cc2ccccc2)NC(=O)CCCCC(=O)N[C@@H](Cc2ccccc2)C(=O)N(C)c2ccc(OC)cc2)cc1` [Example 23] were 1.16 µM and 26.9 µM.
Taken in the same sequence, the figures for `C=CCCN(C(=O)[C@H](Cc1ccccc1)NC(=O)NS(=O)(=O)N[C@@H](Cc1ccccc1)C(=O)N(CC=C)c1ccc(OC)nc1)c1ccc(OC)nc1` [Example 223] were 1.5 µM and at least 25 µM.
The like results for `COc1ccc(N(C)C(=O)[C@H](Cc2cc(F)cc(F)c2)NC(=O)COc2nc3ccccc3n(CC(=O)N[C@@H](Cc3cc(F)cc(F)c3)C(=O)N(C)c3ccc(OC)cc3)c2=O)cc1` [Example 96] were, in that order, 0.12 µM and at least 50 µM.
On to `CN(C(=O)[C@H](Cc1cc(F)cc(F)c1)NC(=O)NS(=O)(=O)N[C@@H](Cc1cc(F)cc(F)c1)C(=O)N(C)c1ccc(C(F)(F)F)nc1)c1ccc(C(F)(F)F)nc1` [Example 199], for which the EC50 in data set [1] came to 0.47 µM. The molecule further returned a CC50 at 4 days in data set [2] of 46.7 µM.
Taken in the same sequence, the figures for `CN(C(=O)[C@H](Cc1cc(F)cc(F)c1)NC(=O)NS(=O)(=O)N[C@@H](Cc1cc(F)cc(F)c1)C(=O)N(C)c1ccc2sc(=O)[nH]c2c1)c1ccc2sc(=O)[nH]c2c1` [Example 175] were 0.45 µM and at least 100 µM.
The like results for `CN(C(=O)[C@H](Cc1cc(F)cc(F)c1)NC(=O)CN1c2ccccc2N(CC(=O)N[C@@H](Cc2cc(F)cc(F)c2)C(=O)N(C)c2ccc3snnc3c2)S1(=O)=O)c1ccc2snnc2c1` [Example 178] were, in that order, 0.02 µM and at least 100 µM.
Taken in the same sequence, the figures for `Cc1ccc(N(C)C(=O)[C@H](Cc2cc(F)cc(F)c2)NC(=O)NS(=O)(=O)N[C@@H](Cc2cc(F)cc(F)c2)C(=O)N(C)c2ccc(C)cn2)nc1` [Example 182] were 0.4 µM and 97.9 µM.
